Values joined by “and” are separate entries in the source; they are usually repeats but may differ in a detail not shown here. Identical values can stand only once.
Legend:
14-3-3σ/C-RAF259 [1] = biological target: T1, 14-3-3σ/C-RAF259 (Homo sapiens, UniProt P31947); experiment: Fluorescence anisotropy (FA) compound titration; type: binding; details: 10 nM C-RAF259-FAM 10-mer, 5 μΜ 14-3-3σ, overnight; read-out: Compound titrations EC50 value C-RAF259
N-RAS Q61L/C-RAF = details: HEK293T; 100% = DMSO mBU, 0% = N-RAS/C-RAF R89L
14-3-3σ/C-RAF259 [2] = biological target: T1, 14-3-3σ/C-RAF259; experiment: FA protein titration, C-RAF259 peptide; details: appKd DMSO / appKd compound
Procedure: The following peptdes were used in the FA selectvity panel:
SOS1 pS1161: FITC-Ahx-PRRRPE{pS}APAESS-CONH2, TSC2 pS1254: FAM-Ahx-LY K S L { p S } V PA A S TA K-CONH2, ARHG2 pS886: FAM-Ahx-PVDPRRR{pS}LPAGDAL-CONH2.
Mass spectrometry dose response assays were performed on a Waters Acquity UPLC/ Xevo G2-XS Q-To f m a s s
samples prior to applicaton on the mass spectrometer. For 19-point MS dose responses, 50 mM compound stocks
transferred in the assay plates.
Assay buﬀer was TRIS (10 mM, pH 8.0) and ﬁnal volume per well was 50
μL, with ﬁnal top concentraton of compounds dose response series at 1 mM.
24 μL of sample were needed for the tme-course
(BSA; Sigma-Aldrich). Final DMSO in the assay was less than 1%. Diluton series of 14-3-3 proteins or compounds
dispensed in the assay plates. […] Ea ch compound was measured in triplicates, i n two i ndependent experi ments. Fluorescence anisotropy measurements were performed directly and a€er overnight incubaton at room temperature. The high
(10 nM) and DMSO or compound (100 µM). Fluorescence anisotropy measurements were performed a€er overnight incubaton at room temperature .

14-3-3σ/C-RAF [3] = biological target: T2, 14-3-3σ/C-RAF (Homo sapiens, UniProt P31947); details: HEK293T cells, mBU compound / mBU DMSO
Target sequence in this assay (P04049 whole entry partner, one chain of several): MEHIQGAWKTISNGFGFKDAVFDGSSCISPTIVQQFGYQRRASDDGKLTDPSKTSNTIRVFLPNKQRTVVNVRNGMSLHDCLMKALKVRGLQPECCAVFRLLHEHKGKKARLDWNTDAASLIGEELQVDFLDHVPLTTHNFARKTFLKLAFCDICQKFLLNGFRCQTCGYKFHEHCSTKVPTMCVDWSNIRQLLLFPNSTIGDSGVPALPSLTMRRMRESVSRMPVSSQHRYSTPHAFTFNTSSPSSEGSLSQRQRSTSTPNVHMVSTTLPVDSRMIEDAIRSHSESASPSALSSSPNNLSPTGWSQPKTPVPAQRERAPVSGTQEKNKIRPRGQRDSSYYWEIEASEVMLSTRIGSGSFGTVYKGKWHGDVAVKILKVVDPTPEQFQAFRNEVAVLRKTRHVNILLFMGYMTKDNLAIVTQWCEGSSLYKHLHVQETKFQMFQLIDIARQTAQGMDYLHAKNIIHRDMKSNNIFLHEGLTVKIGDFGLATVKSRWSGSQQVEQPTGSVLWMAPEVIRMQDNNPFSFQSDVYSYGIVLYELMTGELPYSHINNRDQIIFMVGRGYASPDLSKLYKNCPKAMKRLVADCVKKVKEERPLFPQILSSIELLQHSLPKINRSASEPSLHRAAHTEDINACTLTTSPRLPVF
Procedure: (§1) Stabilization of the interaction with a molecular glue was expected to lead to an increase in the intensity of the BRET signal.
Both cell lines were grown in
All compound treatments were 24 hours.
Brieﬂy, HEK293T cells were

14-3-3σ/A-RAF214 = 14-3-3σ/A-RAF214 (Homo sapiens, UniProt P31947); experiment: Intact mass spectrometry assay with A-RAF214 peptide; details: 1 μM compound, 100 nM 14-3-3σ, 16 µM peptide
Procedure: Ea ch compound was measured in triplicates, i n two i ndependent experi ments. Fluorescence anisotropy measurements were performed directly and a€er overnight incubaton at room temperature.
Fluorescence anisotropy measurements were performed a€er overnight incubaton at room temperature .

14-3-3σ/B-RAF365 = biological target: T3, 14-3-3σ/B-RAF365 (Homo sapiens, UniProt P31947); experiment: Intact mass spectrometry assay with B-RAF365 peptide; type: binding; details: 1 μM compound, 100 nM 14-3-3σ, 5 µM peptide
T3 construct: full-length for mass spectrometry and fluorescence anisotropy assays; made in house; host or cells: E. coli Rosetta 2(DE3)pLysS (14-3-3σ); peptides from Elim Biopharmaceuticals

14-3-3σ = biological target: T4, 14-3-3σ (Homo sapiens, UniProt P31947); experiment: Intact mass spectrometry assay, apo (no peptide); type: binding; parameters: full-length for mass spectrometry and fluorescence anisotropy assays; made in house; host or cells: E. coli Rosetta 2(DE3)pLysS, pPROEX HTb vector; details: 1 μM compound, 100 nM 14-3-3σ
T4 sequence (P31947 1-248): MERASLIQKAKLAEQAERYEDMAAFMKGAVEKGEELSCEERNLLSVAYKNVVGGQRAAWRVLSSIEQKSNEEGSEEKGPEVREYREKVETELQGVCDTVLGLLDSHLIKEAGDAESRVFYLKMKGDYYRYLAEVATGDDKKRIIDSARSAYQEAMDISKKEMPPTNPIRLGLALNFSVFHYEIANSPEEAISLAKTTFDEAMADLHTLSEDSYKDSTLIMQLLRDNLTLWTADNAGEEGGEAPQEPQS

14-3-3σ/C-RAF259 [4] = biological target: T1, 14-3-3σ/C-RAF259; experiment: Intact mass spectrometry assay with C-RAF259 phospho-peptide; type: binding; parameters: full-length for mass spectrometry and fluorescence anisotropy assays; made in house; host or cells: E. coli Rosetta 2(DE3)pLysS (14-3-3σ); peptides from Elim Biopharmaceuticals; details: 1 μM compound, 100 nM 14-3-3σ, 18 µM peptide
pERK [5] = experiment: Lumit immunoassay for pERK levels in HEK293T cells; type: cell-based; details: HEK293T, 24 h, EGF stimulation
14-3-3σ/C-RAF259 [6] = biological target: T1, 14-3-3σ/C-RAF259; experiment: FA compound titration follow-up from selectivity panel
Procedure: (§2) concentraton (50 μM, maximum eﬀect) was used.
giving the anisotropy change (ΔAU ) .
sele tme: 0 ms, gain: optmal).

14-3-3σ/SOS1 = 14-3-3σ/SOS1 (Homo sapiens, UniProt P31947); experiment: as above
Procedure: as §2
giving the anisotropy change (ΔAU ) .
sele tme: 0 ms, gain: optmal).

14-3-3σ/TAZ = 14-3-3σ/TAZ (Homo sapiens, UniProt P31947); experiment: as above
Procedure: as §2
giving the anisotropy change (ΔAU ) .
sele tme: 0 ms, gain: optmal).

pERK [7] = experiment: Lumit immunoassay for pERK with 14-3-3 C38N mutant; type: cell-based; details: HEK293T
14-3-3σ/B-RAF = 14-3-3σ/B-RAF (Homo sapiens, UniProt P31947)
C-RAF/C-RAF = details: with N-RAS Q61L; 100% = DMSO mBU
Procedure: We aimed to study potential effects of the molecular glues on RAF-dimer formation using a NanoBRET assay.
All compound treatments were 24 hours.

[8] = tested on: 80 peptides representing a diverse set of 14-3-3 clients; experiment: FA selectivity panel, single point; details: 10.5 μM compound, 100 nM client peptides, overnight; hit = change in anisotropy of more than 15 units
Procedure: as §2
giving the anisotropy change (ΔAU ) .
sele tme: 0 ms, gain: optmal).

14-3-3σ/C-RAF [9] = biological target: T2, 14-3-3σ/C-RAF
14-3-3σ/TSC2 = 14-3-3σ/TSC2 (Homo sapiens, UniProt P31947); experiment: FA compound titration follow-up from selectivity panel
Procedure: as §2
giving the anisotropy change (ΔAU ) .
sele tme: 0 ms, gain: optmal).

14-3-3σ/C-RAF [10] = biological target: T2, 14-3-3σ/C-RAF; experiment: cell-based
Target sequence in this assay (P04049 whole entry partner, one chain of several): as the sequence (P04049 whole entry partner, one chain of several) above
Procedure: as §1
Both cell lines were grown in
All compound treatments were 24 hours.
Brieﬂy, HEK293T cells were

14-3-3σ/A-RAF = 14-3-3σ/A-RAF (Homo sapiens, UniProt P31947)
14-3-3σ/KC1A = 14-3-3σ/KC1A (Homo sapiens, UniProt P31947); experiment: FA compound titration follow-up from selectivity panel
Procedure: as §2
giving the anisotropy change (ΔAU ) .
sele tme: 0 ms, gain: optmal).

B-RAF/C-RAF = experiment: NanoBRET for heterodimer formation B-RAF/C-RAF
A-RAF/C-RAF = experiment: NanoBRET for heterodimer formation A-RAF/C-RAF
[11] = 14-3-3σ covalently bound to compound, Replicate 1 and 2

Structure (SMILES): O=C(CCl)NCC1CCN(S(=O)(=O)Cc2cccc(F)c2)CC1 [Compound 8]
- EC50 (14-3-3σ/C-RAF259 [1]): > 1000 µM
- reduction of the N-RAS Q61L/C-RAF interaction (N-RAS Q61L/C-RAF): did not affect
- Fold stabilization (100 µM compound), C-RAF259 (10mer) (14-3-3σ/C-RAF259 [2]): lacked an effect
- Fold stabilization (100 µM compound), C-RAF259 (10mer) (14-3-3σ/C-RAF259 [2]; listed as (8)): 1 fold
- 14-3-3/C-RAF NanoBRET fold stab. (14-3-3σ/C-RAF [3]): No increase
- % bound, A-RAF214 (15mer), 1h (14-3-3σ/A-RAF214; 1 h): 0%
- % bound, A-RAF214 (15mer), 8h (14-3-3σ/A-RAF214; 8 h): 0%
- % bound, A-RAF214 (15mer), 16h (14-3-3σ/A-RAF214; 16 h): 0%
- % bound, A-RAF214 (15mer), 24h (14-3-3σ/A-RAF214; 24 h): 0%
- % bound, B-RAF365 (10mer), 1h (14-3-3σ/B-RAF365; 1 h): 0%
- % bound, B-RAF365 (15mer), 1h (14-3-3σ/B-RAF365; 1 h): 0%
- % bound, B-RAF365 (10mer), 8h (14-3-3σ/B-RAF365; 8 h): 0%
- % bound, B-RAF365 (15mer), 8h (14-3-3σ/B-RAF365; 8 h): 0%
- % bound, B-RAF365 (10mer), 16h (14-3-3σ/B-RAF365; 16 h): 2.5%
- % bound, B-RAF365 (15mer), 16h (14-3-3σ/B-RAF365; 16 h): 0.9%
- % bound, B-RAF365 (10mer), 24h (14-3-3σ/B-RAF365; 24 h): 2.5%
- % bound, B-RAF365 (15mer), 24h (14-3-3σ/B-RAF365; 24 h): 3.8%
- % bound, APO, 1h (14-3-3σ; 1 h): 0%
- % bound, APO, 8h (14-3-3σ; 8 h): 0%
- % bound, APO, 16h (14-3-3σ; 16 h): 1.9%
- % bound, APO, 24h (14-3-3σ; 24 h): 2.9%
- % bound, C-RAF259 (11mer), 1h (14-3-3σ/C-RAF259 [4]; 1 h): 2.9% and 0%
- % bound, C-RAF259 (15mer), 1h (14-3-3σ/C-RAF259 [4]; 1 h): 0%
- % bound, C-RAF259 (11mer), 8h (14-3-3σ/C-RAF259 [4]; 8 h): 5.6% and 0%
- % bound, C-RAF259 (15mer), 8h (14-3-3σ/C-RAF259 [4]; 8 h): 0%
- % bound, C-RAF259 (11mer), 16h (14-3-3σ/C-RAF259 [4]; 16 h): 5.6%
- % bound, C-RAF259 (15mer), 16h (14-3-3σ/C-RAF259 [4]; 16 h): 0%
- % bound, C-RAF259 (11mer), 24h (14-3-3σ/C-RAF259 [4]; 24 h): 5.6% and 2.9%
- % bound, C-RAF259 (15mer), 24h (14-3-3σ/C-RAF259 [4]; 24 h): 0%
- effect on phosphorylation of ERK (pERK [5]; 23 at 10 μM): No effect

Structure (SMILES): O=C(CCl)NCC1CCN(S(=O)(=O)c2ccc(I)cc2)CC1 [Compound 23]
- EC50 (14-3-3σ/C-RAF259 [6]): 5.1 µM
- EC50 (14-3-3σ/SOS1): 24.2 µM
- EC50 (14-3-3σ/TAZ): 11.7 µM
- EC50 (14-3-3σ/C-RAF259 [1]): 1 ± 0.5 µM
- reduction of the N-RAS Q61L/C-RAF interaction (N-RAS Q61L/C-RAF): 75%
- effect on pERK with the C38N mutant (pERK [7]): No effect
- ka, single replicates, B-RAF 12-mer (14-3-3σ/B-RAF; [11]): 9.53e+06 M⁻¹ s⁻¹ and 8.53e+06 M⁻¹ s⁻¹
- kd, single replicates, B-RAF 12-mer (14-3-3σ/B-RAF; [11]): 0.0572 s⁻¹ and 0.0569 s⁻¹
- affinity increase, B-RAF (14-3-3σ/B-RAF; vs binary interaction): 400 fold
- decrease in C-RAF homodimer formation (C-RAF/C-RAF): 47%
- clients emerged as hits [8]: four
- ka, single replicates, C-RAF 12-mer (14-3-3σ/C-RAF [9]; [11]): 1.12e+07 M⁻¹ s⁻¹ and 1.09e+07 M⁻¹ s⁻¹
- kd, single replicates, C-RAF 12-mer (14-3-3σ/C-RAF [9]; [11]): 0.0131 s⁻¹ and 0.0133 s⁻¹
- affinity increase, C-RAF (14-3-3σ/C-RAF [9]; vs binary interaction): 2000 fold
- EC50 (14-3-3σ/TSC2): 19.2 µM
- EC50 (14-3-3σ/C-RAF [10]): 0.18 µM
- ka, single replicates, A-RAF 12-mer (14-3-3σ/A-RAF; [11]): 1.25e+07 M⁻¹ s⁻¹ and 1.02e+07 M⁻¹ s⁻¹
- kd, single replicates, A-RAF 12-mer (14-3-3σ/A-RAF; [11]): 0.0189 s⁻¹ and 0.0196 s⁻¹
- affinity increase, A-RAF (14-3-3σ/A-RAF; vs binary interaction): 1000 fold
- EC50 (14-3-3σ/KC1A): 38.1 µM
- decrease of the B-RAF/C-RAF dimer (B-RAF/C-RAF): 15%
- decrease of the A-RAF/C-RAF interaction (A-RAF/C-RAF): 23%
- IC50 (pERK [5]; Homo sapiens, HEK-293T, 14-3-3σ and C-RAF transfected): 4.4 µM

— publication PMC12903857
